Results published in patent US20240398771A1, “TREATMENT OF SCLERODERMA AND RAYNAUD'S SYNDROME” (Aisa Pharma, Inc., priority 2023, published 2024).

Columns and labels:
participants with SSc-RP [1] = assay: Frequency of weekly RP attacks, all attacks (patient diary; primary endpoint); type: in vivo, human; details: for Weekly RP Attacks (All Attacks), Max / Weekly RP Attacks (All Attacks), Min / Weekly RP Attacks (All Attacks), Q1 / Weekly RP Attacks (All Attacks), Q3: last 7 days of dosing period
Protocol: Part A—Double-blind, Placebo-controlled, Parallel-group, Dose selection, will assess the safety and efficacy of two doses of cilnidipine (10 mg and 20 mg), alone and in combination with tadalafil. A total of 36 participants will be randomized to one of six pre-specified treatment arms. See Example 3 for data obtained in this phase of the study thus far, on 11 participants.
Please refer to FIG. 1 for treatment arms in Part A of the study. Dosing lasted or will last for 12 (±2) days in which participants self-administered or will self-administer daily doses of assigned treatment in the morning. Each participant took or will take one capsule and one tablet to blind the active therapy being received.
The relevant metrics measured by this tool daily are: • Study medication • SSc-RP symptoms (Reporting an attack including duration of attack) • Severity of the attack considering all symptoms of the attack e.g. tingling, numbness, pain, color changes (VAS 0-10 cm scale) • Participant's location at the time of the attack (inside home/outside home) • Selecting symptoms experienced during the attack (tingling, numbness, pain, color changes, other) • Pain rating during the attack (11-point Likert scale) • The RCS based on how much difficulty participants had with Raynaud's today, how many attacks the participant had, and how long they lasted. Participants will also be asked to consider how much pain, numbness, or other symptoms the Raynaud's caused in fingers (including painful sores), and how much the Raynaud's alone affected the use of hands today (VAS 0-10 cm scale).
Percent change from baseline evaluation for frequency of weekly RP attacks were or will be used as the primary efficacy variable. The sponsor-developed participant-informed diary will be used to record data. Frequency of weekly RP attacks is defined as the total number of RP attacks divided by the number of days with available diary data within the last 7 days of each dosing period then multiplied by 7. Total number of RP attacks during the last 7 days of screening period divided by the number of days with available data then multiplied by 7 will be used as baseline for the analysis of all periods.
Percentage change={(weekly RP attacks for the last 7 days of each dosing period−Baseline weekly RP attacks)/Baseline weekly RP attacks}*100%.
Absolute change=weekly RP attacks for the last 7 days of each dosing period−Baseline weekly RP attacks
Percent change from baseline evaluation for frequency of weekly RP attacks was and will be the primary efficacy endpoint. Frequency of weekly RP attacks is defined as the total number of RP attacks divided by the number of days with available diary data within the last 7 days of each dosing period then multiplied by 7. Total number of RP attacks during the last 7 days of screening period divided by the number of days with available data then multiplied by 7 will be used as baseline for the analysis of all periods.
The following data was actually obtained in accordance with the protocol and plan delineated in Examples 1 and 2. The accompanying data involved 11 patients out of the planned 76 patient study. The study was done in patients with scleroderma (systemic sclerosis) who had relatively frequent Raynaud symptoms as they needed to average at least one attack per day during a screening period of up to two weeks. In this first phase of this double-blind placebo-controlled, prospective randomized study, patients were treated in parallel and after meeting study criteria were randomized to receive either placebo, cilnidipine 10 mg daily, cilnidipine 20 mg daily, tadalafil 5 mg daily, cilnidipine 10 mg plus 5 mg of tadalafil, or cilnidipine 20 mg plus 5 mg of tadalafil.
Results: Patients in the study were administered the Scleroderma Health Assessment Questionnaire (SHAQ) at the time of study entry and during clinic visits following the treatment period. […]

[2] = oral dosing; cited from earlier work
participants with SSc-RP [3] = assay: SHAQ Visual Analog Scale - Pain; type: in vivo, human
Protocol: Results: Patients in the study were administered the Scleroderma Health Assessment Questionnaire (SHAQ) at the time of study entry and during clinic visits following the treatment period. The study is a two-part, parallel arm design, prospective, double-blind, randomized study conducted in Australia (Flinders Medical Center). 27 patients were randomized into the first phase of the study, following which a DSMB meeting was held, which reviewed data on the primary study endpoint and key Raynaud's secondary endpoints. Data on the SHAQ was not available for the DSMB to review. The mITT population, in which any data was available post treatment was 24 patients was the analysis population for this first part of the study. The second part (i.e., part B) of the study will randomize 36 patients in a double blind, randomized, prospective, placebo controlled, crossover study. In the first part (i.e., Part A) of the study for which data is presented, patients were randomized into 6 groups, cilnidipine at two doses (10 and 20 mg) alone and in combination with tadalafil 5 mg, tadalafil 5 mg alone, and placebo. […] The DSMB recommended that the study proceed into its double blind prospective cross overpowered second phase and compare cilnidipine 20 mg alone to placebo. […] Cilnidipine treatment may reduce patient-reported SSc disease disability compared to placebo • b. Cilnidipine treatment may reduce patient-reported SSc disease alternative disability compared to placebo • c. Cilnidipine treatment may reduce patient-reported SSc disease pain* compared to placebo • d. Cilnidipine treatment may reduce patient-reported SSc disease severity compared to placebo • e. Cilnidipine treatment may reduce patient-reported SSc disease skin ulcer severity rating compared to placebo • f Cilnidipine treatment may reduce patient-reported SSc disease breathing difficulty compared to placebo • g. […] SSc disease pain comprises not only pain from Raynaud's but joint pain, headache, odynophagia, back pain, pain from skin ulceration, and neuropathic pain). Table E includes results of the Scleroderma Health Assessment Questionnaire.
Pain on the SHAQ outcome measure on the first line in table F is a composite of all pain experienced in patients with SSc, comprising joint pain, back pain, headache, odynophagia, skin ulcer related discomfort, Raynaud's, and neuropathic pain. Aisa Pharma believes, based on the biologic attributes and actions of cilnidipine that differ from most dihydropyridine calcium channel antagonists that cilnidipine might have direct analgesic effects in certain pain conditions and in fact has been designated to receive evaluation through the NIH-NINDS Preclinical Pain Screening Platform Program to investigate the drug in multiple in vitro and in vivo preclinical models of pain that are validated and predictive of effects in man.

[4] = Table A-5, ITT Part A, listed as Cilnidipine 10 mg
[5] = Table A-5, ITT Part A, listed as Cilnidipine 20 mg
[6] = Table A-5, ITT Part A, listed as Pooled Cilnidipine
[7] = Table A-5, ITT Part A, last 7 days of dosing vs last 7 days of screening
[8] = Table A-5, ITT Part A, last 7 days of dosing vs last 7 days of screening, listed as Cilnidipine 10 mg
[9] = Table A-5, ITT Part A, last 7 days of dosing vs last 7 days of screening, listed as Cilnidipine 20 mg
[10] = Tadalafil 5 mg, Modified ITT, Part A

COCCOC(=O)C1=C(C)NC(C)=C(C(=O)OC/C=C/c2ccccc2)C1c1cccc([N+](=O)[O-])c1 (centres unmarked) [Cilnidipine, 1,4-dihydro-2,6-dimethyl,4-(3-nitrophenyl)-3,5-pyridinedicarboxylic acid 2-methoxyethyl (2 E)-3-phenyl-2-propenyl ester]
Efficacy Seen: overall response (participants with SSc-RP [1]; 20 mg dose group): shows best overall | effect on Raynaud's endpoints (DSMB review) (participants with SSc-RP [1]; Example 4, Part A, both doses (10 and 20 mg)): effective at reducing Raynaud's endpoints | Weekly RP Attacks (All Attacks) Percent Change from Baseline, Median (participants with SSc-RP [1]; Pooled Cilnidipine 20 mg and Cilnidipine 20 mg + Tadalafil 5 mg, excluding outliers, baseline RCS subgroup not named, upper half of table, ITT Part A): −45.00% | Weekly RP Attacks (All Attacks), Median (participants with SSc-RP [1]; Pooled Cilnidipine, excluding outliers, baseline RCS subgroup not named, upper half of table, ITT Part A): 11.00 | Weekly RP Attacks (All Attacks), Max (participants with SSc-RP [1]; [4]): 23.0 | Weekly RP Attacks (All Attacks), Min (participants with SSc-RP [1]; [4]): 23.0, | Weekly RP Attacks (All Attacks), Q1 (participants with SSc-RP [1]; [4]): 23.00, | Weekly RP Attacks (All Attacks), Q3 (participants with SSc-RP [1]; [4]): 23.00 | Weekly RP Attacks (All Attacks), Max (participants with SSc-RP [1]; [5]): 11.0 | Weekly RP Attacks (All Attacks), Min (participants with SSc-RP [1]; [5]): 5.0, | Weekly RP Attacks (All Attacks), Q1 (participants with SSc-RP [1]; [5]): 5.00, | Weekly RP Attacks (All Attacks), Q3 (participants with SSc-RP [1]; [5]): 11.00 | Weekly RP Attacks (All Attacks), Max (participants with SSc-RP [1]; [6]): 23.0 | Weekly RP Attacks (All Attacks), Min (participants with SSc-RP [1]; [6]): 5.0, | Weekly RP Attacks (All Attacks), Q1 (participants with SSc-RP [1]; [6]): 5.00, | Weekly RP Attacks (All Attacks), Q3 (participants with SSc-RP [1]; [6]): 23.00 | Weekly RP Attacks (All Attacks) Change from Baseline, Min (participants with SSc-RP [1]; [7]): −9.0, | Weekly RP Attacks (All Attacks) Change from Baseline, Q1 (participants with SSc-RP [1]; [7]): −9.00, | Weekly RP Attacks (All Attacks) Change from Baseline, Max (participants with SSc-RP [1]; [8]): −9.0 | Weekly RP Attacks (All Attacks) Change from Baseline, Q3 (participants with SSc-RP [1]; [8]): −9.00 | Weekly RP Attacks (All Attacks) Change from Baseline, Max (participants with SSc-RP [1]; [9]): −4.3 | Weekly RP Attacks (All Attacks) Percent Change from Baseline, Max (participants with SSc-RP [1]; [9]): −45.0% | Weekly RP Attacks (All Attacks) Percent Change from Baseline, Q3 (participants with SSc-RP [1]; [9]): −45.00% | Weekly RP Attacks (All Attacks) Change from Baseline, Max (participants with SSc-RP [1]; Table A-5, ITT Part A, last 7 days of dosing vs last 7 days of screening, listed as Pooled Cilnidipine): −4.3 | time to achieve maximal plasma concentrations (Tmax) [2]: about 2 hours | VAS- PAIN, Baseline on a 0-10 VAS (participants with SSc-RP [3]; Cilnidipine 20 mg (n = 3), footnote *): *Baseline was 2.17 on a 0-10 VAS | Visual Analog Scale-Pain, Baseline, Median (participants with SSc-RP [3]; Cilnidipine 20 mg, Modified ITT, Part A): 1.500 | patient-reported SSc disease pain compared to placebo (participants with SSc-RP [3]; Example 4, SHAQ, mITT Part A): may reduce

CN1CC(=O)N2[C@H](c3ccc4c(c3)OCO4)c3[nH]c4ccccc4c3C[C@@H]2C1=O [Tadalafil]
Weekly RP Attacks (All Attacks), Max (participants with SSc-RP [1]; Table A-5, ITT Part A): 19.0 | Weekly RP Attacks (All Attacks), Min (participants with SSc-RP [1]; Table A-5, ITT Part A): 7.0, | Weekly RP Attacks (All Attacks), Q1 (participants with SSc-RP [1]; Table A-5, ITT Part A): 7.00, | Weekly RP Attacks (All Attacks), Q3 (participants with SSc-RP [1]; Table A-5, ITT Part A): 19.00 | Weekly RP Attacks (All Attacks) Change from Baseline, Max (participants with SSc-RP [1]; [7]): 6.0 | Weekly RP Attacks (All Attacks) Change from Baseline, Min (participants with SSc-RP [1]; [7]): 0.0, | Weekly RP Attacks (All Attacks) Change from Baseline, Q1 (participants with SSc-RP [1]; [7]): 0.00, | Weekly RP Attacks (All Attacks) Change from Baseline, Q3 (participants with SSc-RP [1]; [7]): 6.00 | Weekly RP Attacks (All Attacks) Percent Change from Baseline, Min (participants with SSc-RP [1]; [7]): 0.0, % | Weekly RP Attacks (All Attacks) Percent Change from Baseline, Q1 (participants with SSc-RP [1]; [7]): 0.00, % | time to achieve maximal plasma concentrations (Tmax) [2]: 2 h | Visual Analog Scale-Pain, Baseline, Mean (participants with SSc-RP [3]; [10]): 3.167 | Visual Analog Scale-Pain, Baseline, Median (participants with SSc-RP [3]; [10]): 2.900 | Visual Analog Scale-Pain, Change from Baseline, Mean (participants with SSc-RP [3]; [10]): −0.300 | Visual Analog Scale-Pain, Change from Baseline, Median (participants with SSc-RP [3]; [10]): −0.100 | Visual Analog Scale-Pain, In Clinic Visit (Day 12), Mean (participants with SSc-RP [3]; [10]): 2.700 | Visual Analog Scale-Pain, In Clinic Visit (Day 12), Median (participants with SSc-RP [3]; [10]): 2.150 | Visual Analog Scale-Pain, Percent Change from Baseline, Mean (participants with SSc-RP [3]; [10]): −14.24% | Visual Analog Scale-Pain, Percent Change from Baseline, Median (participants with SSc-RP [3]; [10]): −4.55%
